This is an account of results in US7056734B1, “Differentiation of non-insulin producing cells into insulin producing cells by GLP-1 or exendin-4 and uses thereof” (The United States of America as represented by the …, priority 1998, dated 2006).

Data set [1] relates to Hexokinase I, II and III mRNA. As to the kind of experiment: Slot-blot quantitation of hexokinase I, II and III mRNA in pancreata and islets. Format: in vivo, rat. The conditions noted are these: whole pancreata and islets. As to the method:
Whole pancreata of rats that had been subjected to 48 hrs infusion with GLP-1 or saline were used to extract total RNA. After an overnight fast, animals were sacrificed, pancreata were removed and frozen in liquid nitrogen as quickly as possible. RNA was extracted by homogenization in guanidinium isothiocyanate, followed by ultracentrifugation on a 5.7 M cesium chloride cushion (Glisin et al., 1974; Chigwin et al., 1979). Poly-A RNA was then prepared from total RNA by affinity chromatography using oligo (dT) columns (Biolabs INC, Beverly, Mass.). RNA was quantified by spectrophotometric analysis at […]. Slot-blot analysis using poly-A RNA was used for quantitation of mRNA levels of glucokinase, which is the main glucose sensor of the beta cell (Matschinsky, 1990), the three hexokinases, GLUT2, the major glucose transporter of the beta cell (Mueckler, 1990), and insulin. Four micrograms of poly-A RNA were diluted in 50 μl TE buffer (Tris-HCL 10 mM, EDTA 1 mM, pH 7.4), 20 μl of 37% formaldehyde and 20 μl of 10× SSC. Samples were incubated at 60° C. for 15 min and then diluted with 1 ml of ice-cold 10× SSC (1×SCC=0.15 M NaCl+0.015 sodium citrate). […]
RNA isolation and quantitation of mRNAs in islets of Langerhans. […] Slot-Blot analysis was carried out to quantitate mRNA levels of the hexokinases, GLUT2, and insulin.

The test system of the next data set is AR42J cells. Description: Amylase content and CCK response of AR42J cells after 72 h treatment. It is filed as cell-based, rat. As to the method: Amylase Assay. For amylase determination, cells were washed free of medium with 2 ml PBS. Incubation was then carried out in DMEM containing 15 mM HEPES, 0.2% BSA and 0.01% soybean trypsin inhibitor. CCK (1 nM) was added for 50 min at 37° C. The incubation medium was then immediately removed for amylase determination and the cells were again washed in 2 ml ice-cold PBS. Lysate buffer containing (in mM) 130 Tris-HCl, 10 CaCl2, 75 NaCl, and 0.2% Triton X-100 (pH 8.0) was added to the cells and the lysates were then collected for total amylase (Ceska et al., 1969). The released amylase was expressed as the percentage of the total amylase in the cells.

Data set [2] concerns diabetic mice (C57BLKS/J-Lepr^db/Lepr^db). As to the kind of experiment: Daily ip exendin-4 in diabetic mice. Format: in vivo, mouse. The source says: Animals. Four month old Wistar rats from the Wistar colony in the NIA (Baltimore, Md.) were used for the acute experiments of the effects of exendin-4 and GLP-1 (see Example 1). They had been maintained on standard lab chow and fed ad libitum. For the long-term experiments, diabetic mice (C57BLKS/J-Lepr^db/Lepr^db) lacking the leptin receptor, and their non-diabetic littermates were purchased at 4 weeks of age from Jackson Laboratories (Bar Harbor, Me.). They were housed two per cage and also were fed ad libitum. The same mice were caged together for the duration of the study. Wistar rats are caged on wire while the bedding for the mice was a paper based product, “Carefresh” (Absorption Co., Bellingham, Wash.).
Subsequently, whole blood glucose levels, taken from a retro-orbital sinus, were determined in the mice using a Glucometer Elite (Bayer). This regimen was continued for 12–13 weeks. […] Animals were weighed weekly. After one week of the regimen blood samples were again taken from a retro-orbital sinus for determination of insulin and glucose levels. At the end of the regimen, fasting blood samples were obtained for glucose and insulin levels and whole blood containing EDTA was assayed for hemoglobin A1c (Hb A1c) on the same day from the four groups.
Assays. Plasma glucose was measured by the glucose oxidase method (Wang et al., 1997). Insulin was measured by RIA as previously described (See Example 1). Hb A1c was assayed using a BIO-RAD (Herculas Calif.) DiaSTAT machine which uses low pressure cation exchange chromatography in conjunction with gradient elution to separate hemoglobin subtypes and variants from hemolyzed blood. The separated hemoglobin fractions were monitored by means of absorption of light at 415 nm.

Data set [3] has as its system beta cells of the pancreas. The conditions noted are these: Goke et al., 1993; cited from earlier work.

Take `CC[C@H](C)[C@H](NC(=O)[C@H](Cc1ccccc1)NC(=O)[C@H](CCC(=O)O)NC(=O)[C@H](CCCCN)NC(=O)[C@H](C)NC(=O)[C@H](C)NC(=O)[C@H](CCC(N)=O)NC(=O)CNC(=O)[C@H](CCC(=O)O)NC(=O)[C@H](CC(C)C)NC(=O)[C@H](Cc1ccc(O)cc1)NC(=O)[C@H](CO)NC(=O)[C@H](CO)NC(=O)[C@@H](NC(=O)[C@H](CC(=O)O)NC(=O)[C@H](CO)NC(=O)[C@@H](NC(=O)[C@H](Cc1ccccc1)NC(=O)[C@@H](NC(=O)CNC(=O)[C@H](CCC(=O)O)NC(=O)[C@H](C)NC(=O)[C@@H](N)Cc1c[nH]cn1)[C@@H](C)O)[C@@H](C)O)C(C)C)C(=O)N[C@@H](C)C(=O)N[C@@H](Cc1c[nH]c2ccccc12)C(=O)N[C@@H](CC(C)C)C(=O)N[C@H](C(=O)N[C@@H](CCCCN)C(=O)NCC(=O)N[C@@H](CCCNC(=N)N)C(N)=O)C(C)C` [GLP-1]: in data set [1], the “Hexokinase I, II and III mRNA levels” value was “did not appear to be altered”. In the data set with AR42J cells (GLP-1 added together with dexamethasone, 72 h), this molecule had a total amylase content of 7.76 U/1. The “acute amylase response to CCK (1 nM)” value in the data set on AR42J cells (cells pretreated with GLP-1 for 72 h) is listed as “decreased”.
As for exendin-4, the “blood sugar lowering at lower concentration compared with larger amount” value in data set [2] (1 nmol/kg ip for one week, diabetic mice) is “just as effective”. In addition, the “weight of the animal for the first 3–4 days of injection” value in data set [2] (back to same as NaCl-treated by the seventh day) was “drops”. Besides, in data set [2] (diabetic mice, 9 weeks treatment), the “cage bedding 24 hours after changing vs NaCl-treated diabetic animals (urination)” value is listed as “obviously drier”. In addition, the fasting glucose levels in data set [2] (diabetic mice, 12–13 weeks, NaCl 517±59, p<0.005) turned out to be 278.7 ± 30.0 mg/dL. In addition, the fasting insulin levels in data set [2] (diabetic mice, 12–13 weeks, NaCl 707.2±169.7, p<0.02) was 4,600±1,114 pmol/l. Also, the “Hb A1c” value in data set [2] (diabetic mice, daily ip for 12–13 weeks, NaCl-treated 8.8%, p<0.0001) was found to be 4.7%. Moreover, in data set [2] (diabetic mice, daily ip, NaCl-treated 238±51, p<0.002), the “fasting glucose level after one week of treatment” value was 90 ± 11 mg/dL. The “deaths just after receiving exendin-4” value in data set [2] (diabetic mice, day fourteen) was “one of the diabetic mice died”. Also, the “fasting insulin levels after one week vs NaCl” value in data set [2] (diabetic mice, p<0.002) is “higher”. For the same molecule, the “body weight at 13–14 weeks of treatment” value in data set [2] (diabetic mice, NaCl-treated 38.7 g) came to 46.7 g. The “effects of the daily injections on behavior” value in data set [2] (long-term daily ip) was “no untoward effects”. Moreover, the “lowest concentrations increasing cAMP and insulin secretion” value in data set [3] is 10^−10 M.
